Results: a melting point compilation (Tetko et al.; mined from patent text by program, amines drawn as free bases though some values may be those of a salt)

Compound | melting point [°C]
Cc1cccc2c1CCN=C2c1ccc(Br)cc1 | 60 to 61.5
CC12CCC3c4ccc(O)cc4CCC3C1CC(O)C2 (stereo not given) | 181 to 182
C=C[C@H]1CN(c2c(F)cc3c(=O)c(C(=O)O)cn4c3c2OC[C@@H]4C)C[C@H]1N | 238 to 240
C=C1C(c2ccccc2)=C(c2ccc(S(C)(=O)=O)cc2)C1(Cl)Cl | 124 to 126
O=C(O)c1ccc(CNC(=O)C2Cc3ccccc3N2S(=O)(=O)c2ccc(-c3ccc(F)cc3OC(F)F)cc2)cc1 (stereo not given) | 92 to 97
O=c1[nH]c2c(Cl)ncnc2n1CCN1CCC(Nc2nc3ccccc3n2Cc2ccc(F)cc2)CC1 | 266
CC12C=CCC1C1CCC3CC(=O)CCC3C1CC2 (stereo not given) | 51 to 54
Cc1cc(-c2cc(C(F)(F)F)nn2-c2ccc(S(N)(=O)=O)c(F)c2)ccc1-c1cscn1 | 125 to 127
CNc1nccn2c(Br)cnc12 | 139
CC12CC(=O)C3C(CCC4CC5OC5CC43C)C1CCC2C#N (stereo not given) | 206 to 208
COc1ccccc1NS(=O)(=O)c1ccc(F)cc1 | 101 to 102
COc1ccccc1N1CCN(CCc2ccc3c(c2)oc(=O)n3C)CC1 | 137 to 138
O=C1N=Nc2ccncc21 | > 350
N#Cc1cc(-c2cc(C(F)F)c3cnn(C4CCCCO4)c3n2)ccc1N (stereo not given) | 192
N#Cc1ncc(NCCO)nc1N1CCC(c2ccc(F)cc2)CC1 | 155 to 158
O=c1[nH]c2cccnc2n1-c1ccccc1 | 233 to 235
Cc1[nH]c(Br)c(C)c1-c1ccnc(Nc2ccc(F)cc2)n1 | 181 to 183
CC(C)(C)c1cc(N)n(-c2cccc(Oc3ccccc3)c2)n1 | 108 to 110
O=C(Cc1ccccc1)c1ccc(OCc2ccccc2)cc1O | 106 to 108
CC(C)(CNc1ccc(C2=NNC(=O)CC2)cc1)[N+](=O)[O-] | 220 to 222
CN1C(=O)C(C)(C)N=C(c2ccccc2Cl)c2c1ccc(N)c2Cl | 195 to 196
COc1cc(NCCCCCCN2CCN(c3ccc(Cl)c(Cl)c3)CC2)c2nccc(C)c2c1 | 92 to 94
COc1cc2nc(N3CCN(C(=O)C=Cc4ccc(OC)c(OC)c4OC)CC3)nc(N)c2cc1OC | 263 to 264
CC1(C)CC(OC(=O)CCCCCCCCC(=O)OC2CC(C)(C)N(CC#N)C(C)(C)C2)CC(C)(C)N1CC#N | 91

Compound | melting point [°C]
CC(C)n1cc(-c2c(-c3ccccc3)nn3ccncc23)ccc1=O | 196 to 197
Cc1cn(C(C)(C(=O)N(C)C)c2ccccc2)nc1-c1ccccc1Cl (stereo not given) | 96 to 99
CC(C)c1nc(C(C)C)c(CN2CCC(N3CCCCC3)CC2)c(-c2ccc(F)cc2)c1CO | 143 to 145
O=C(NC(=O)c1ccccc1Cl)C(=C1NCCCS1)[N+](=O)[O-] | 130 to 131
Clc1cc(Cl)c2c(c1)C[C@@H]1CCc3ccccc3[C@@H]1O2 (relative stereo) | 141 to 144
O=[N+]([O-])c1ccc2oc(Cc3ccccc3)cc2c1 | 100
O=C(OC1c2ccccc2C(=O)N1c1ccc2ccc(Cl)nc2n1)N1CCN(C=S)CC1 (stereo not given) | 295
O=C(NCCc1ccc(OCc2ccccc2)c(OCc2ccccc2)c1CCc1cccc(OCc2ccccc2)c1)C(F)(F)F | 142 to 144
O=C1OCC2C3OC(C4CCCCC43)C12 (stereo not given) | 90 to 91
CC(C)(C)c1cc(-c2c(C(=O)O)c(=O)oc3cc4c(cc23)CCC4)cc(C(C)(C)C)c1O | 256 to 260
O=C1C(Cc2ccncc2)c2ccccc2N1N1CCCCC1 (stereo not given) | 83 to 86
CS(=O)c1ccc(C2=C(c3ccc(F)cc3)C(=O)C(C)(C)O2)cc1 (stereo not given) | 134 to 136
O=[N+]([O-])c1ccc2c(c1)ncn2-c1ccccc1 | 129 to 131
CSc1ccc(C2=C(c3ccc(F)cc3)CCC2)cc1 | 46 to 47
COc1cc2nc(SCc3nccc(N(C)C)c3F)[nH]c2cc1OC | 142 to 144
O=C1Nc2ccccc2N(C(=O)CN2CCCC(CN3CCCCC3)C2)c2ccccc21 (stereo not given) | 150 to 152
CC(Cc1c[nH]c2ccccc12)(NC(=O)OC1C2CC3CC(C2)CC1C3)C(=O)NC1(C(=O)O)CCCCC1 (stereo not given) | 203 to 208
Cc1ccc(/C=C/C(=O)Nc2cccc(NC(=N)c3ccccc3)c2)cc1 | 147 to 149
N#Cc1c(N)nc2ccc(N3CCN(Cc4ccccc4)CC3)cc2c1O | 291
COc1cc2c(cc1OC)CCNCC2 | 86 to 89
COc1ccc(NC(=O)/C=C/c2ccc([N+](=O)[O-])c(F)c2)cc1[N+](=O)[O-] | 263 to 265
O=C1NCCN1c1ccc(S(=O)(=O)Oc2ccc3[nH]ccc3c2)cc1 | 226 to 227
Clc1ccc(-c2ccc(Br)cc2)cc1 | 81 to 82

Further lines, results first:

melting point [°C] | Compound
163 to 165 | O=C(O)CC1c2ccccc2CCc2ccccc21
63.4 | CC(C)N(CCOC1CCCC2Oc3ccccc3OC12)C(C)C (stereo not given)
77 to 78 | CCc1cc(N(C=O)c2ccccc2)cc(CC)c1N=C=S
115 to 118 | CC(=O)NCC1CC(c2ccc(C3=CCN(C(=O)CO)CC3)cc2)=NO1 (stereo not given)
169 to 171 | CCN1C(=O)c2ccc(N)cc2C1=O
114 to 116 | CC1=NC(=NOC(=O)NC(C)C)SC1(C)C
106 to 109 | CCC(CC)(CC(=O)c1ccc(OC)c(OC)c1)C(=O)O
128 | CC(C)(C)C1COC1(Cn1cncn1)c1ccc(F)cc1 (stereo not given)
124 to 125 | CCCc1nn(-c2ccc(C(F)(F)F)cn2)cc1CCCOc1cc(CC(=O)O)ccc1OCC
134 to 135 | Cc1nnc(C=Cc2ccccc2OCC2CO2)s1 (stereo not given)
61 to 62 | Cc1ccccc1C(=O)c1cc2c(cc1O)CCC2
124 to 128 | Cc1[nH]cnc1CCCCNC(=O)c1ccccc1
95 to 96 | CC(=O)Oc1ccc2c3c(ccc2c1)C1CC=CC1(C)CC3 (stereo not given)
61 to 61.5 | CCOC(=O)c1c(C(C)C)csc1N
55 to 56 | C[C@H](NC(=O)COc1ccc2c(-c3ccccc3)nn(C)c2n1)c1ccccc1
226 to 228 | Cc1nc(N2CCN(Cc3ccccc3)C2=NC#N)sc1C(=O)NCc1ccccc1
244 to 245 | CC(C)(O)Cn1c(CO)nc2c(N)nc3cc(-c4ccccc4)cnc3c21
229 to 230 | CCOC(=O)c1nc2sc([N+](=O)[O-])c(C)c2c(=O)[nH]1
84 | Nc1cc(-n2nnn(CCCF)c2=O)c(F)cc1Cl
218 to 220 | COC(=O)c1ccc(NC=O)nc1

melting point [°C] | Compound
158 to 160 | O=C(O)COCc1cc2cc(C(F)(F)F)ccc2n1S(=O)(=O)c1ccccc1
157 to 158 | CCCOc1ccccc1-c1ncc(N)c(=O)[nH]1
116 to 117 | C=CCOC(=O)c1ccc(-c2ccc3cc(C(=O)OCC)c(C45CC6CC(CC(C6)C4)C5)cc3c2OCCCCC)cc1
185 to 188 | CCCc1ccnc(C(=O)O)c1N
137 to 139 | CN1CCN(c2cccc3c2C[C@H](NC(=O)CCCc2ccccc2)CC3)CC1
101 to 104 | OC1CCc2c(-c3cccs3)cccc21 (stereo not given)
307 to 309 | Cc1nc2c(Br)cccc2c(=O)n1C1CCC(=O)NC1=O (stereo not given)
205 | CC1C(=NO)SCC(=O)N1C (stereo not given)
160 to 165 | COCCNc1ccc(C2=NNC(=O)NC2C)cc1 (stereo not given)
104 to 106 | CCCCc1ccc(C#CC(C)N(O)C(N)=O)s1 (stereo not given)
56 to 58 | CCOC(=O)C(=CNC1CC1)C(=O)c1cc(F)c(F)c(OC)c1F
200 to 201 | CCc1nc2c(N)nc3cc(OCCNC(=O)OC(C)(C)C)ccc3c2n1CC1CCOCC1
108 | CC(=O)CN(c1ccc(Cl)cc1)S(C)(=O)=O
84 to 85.5 | CC(C)NC(=O)N1C(=O)Cc2ccccc21
314 to 316 | Cc1nc2ccc(N)cc2c(=O)n1C1CCC(=O)NC1=O (stereo not given)
210 | CC(C)c1cc2c(s1)Sc1ccccc1NC2=S
143 to 144 | CCCCc1ccc2nc(NC(=O)c3csc(CNC(=O)OC(C)(C)C)n3)sc2c1
140 to 142 | Nc1nccc2cc(CNC(=O)C3CCCN3)ccc12 (stereo not given)
71 to 72 | O=C(CCc1ccc(OCc2ccccc2)cc1)C(F)(F)F
188 to 190 | CC1(C)CC(=O)C(Cc2ccc(Cl)cc2)C(=O)C1

melting point [°C] | Compound
108 to 109 | CCOc1c(C=NOC)c(=O)n(C)c(=O)n1C
133 to 135 | O=C(O)C(=O)c1ccc(OCCCC(=O)c2ccc3ccccc3c2)cc1
146 to 147 | CN(c1cccc2cc(C3=NCC(C)(CN4CCOCC4)S3)[nH]c12)S(=O)(=O)c1cccs1 (stereo not given)
146 | Cc1nc2sccn2c(=O)c1CCN1CCC(=C(c2ccc(F)cc2)c2ccc(F)cc2)CC1
116 | COC(=O)[C@H]1[C@@H](NC(=O)COc2ccccc2)C(=O)N1Cc1ccc(OC)cc1OC (relative stereo)
135 to 138 | CC(C)C1CC1(O)C(=O)O (stereo not given)
158 | CCCCNc1ccc(C(=O)O)cc1N
52 to 54.5 | N#CCSc1c[nH]c2ccccc12
133 to 135 | COC(=O)C1(O)CSC(SC(C)=O)=C1Cl (stereo not given)
176 to 177 | CC1(C)SC(=S)N(Cc2cccs2)C(=O)C1NC(=O)c1ccc(Cl)cc1 (stereo not given)
160 to 164 | CCCc1c(OCCCOc2cccc3c2CCCC3)ccc2c1OC(CCC(=O)O)(CCC(=O)N1CCCC1)CC2=O (stereo not given)
132 to 133 | COc1ccc(/C(=C/C=C/C(=O)O)C(C)C)cc1
129 to 130 | Cc1ccc(-c2nc(COc3cccc(OCc4cccc(C)c4C(=O)O)c3)co2)s1
224 to 226 | CC(=O)NCCNc1nc(Nc2ccc(Cl)cc2)ncc1[N+](=O)[O-]
105 to 106 | CCOC(=O)c1c(-c2ccccc2Cl)c2cc(CC)sc2n(C)c1=O
167 to 169 | CC(C)c1ccc(-c2ccc(F)cc2)n1C(C)CC1CC(O)CC(=O)O1 (stereo not given)
62 to 64 | CCCCCCCCCCCCCCC1CC1C(=O)O (stereo not given)
124 to 132 | Cc1c(C)c(O)c(CC[C@](C)(O)CO)c(C)c1O
